Like-named read-outs stand apart in the source and are kept apart here.
How the values were obtained:
[1] = tested on: A549 (lung cancer) cell line; assay: MTT cytotoxicity assay, A549; conditions: for inhibition: 48 h, triplicate, mean ± s.e.m.; for IC50: read-out: IC50 A549, MTT, 48 h drug treatment, A549
[2] = read-out: Cells viability (%) A549, 10 μM, 10 μM
[3] = read-out: Cells viability (%) A549, 30 μM, 30 μM

melting point | Compound | inhibition [1, 2] | inhibition [1, 3] | IC50 [1] | potency against A549 relative to sorafenib ([1]; from IC50 values)
269 to 272 °C | Cc1nc2ccc(F)cc2c(=O)n1-c1ccc(-n2c(C)nc3ccc(F)cc3c2=O)cc1 [Compound 6d, 3,3′-(1,4-Phenylene)bis(6-fluoro-2-methylquinazolin-4(3H)-one)] | 82.7 ± 1.67% | 81.78 ± 0.45% | 4.54 µM | –
287 to 290 °C | Cc1nc2ccc(Cl)cc2c(=O)n1-c1ccc(-n2c(C)nc3ccc(Cl)cc3c2=O)cc1 [Compound 6c, 3,3′-(1,4-Phenylene)bis(6-chloro-2-methylquinazolin-4(3H)-one)] | 91.98 ± 0.49% | 98.02 ± 0.21% | 5.15 µM | –
332 to 335 °C | Cc1nc2ccc(Cl)cc2c(=O)n1-c1ccc(S(=O)(=O)c2ccc(-n3c(C)nc4ccc(Cl)cc4c3=O)cc2)cc1 [Compound 7c, 3,3′-(Sulfonylbis(4,1-phenylene))bis(6-chloro-2-methylquinazolin-4(3H)-one)] | 72.3 ± 0.78% | 88.43 ± 0.19% | 4.21 µM | –
211 to 212 °C | Cc1ccc2nc(C)n(CCn3c(C)nc4ccc(C)cc4c3=O)c(=O)c2c1 [Compound 5b, 3,3′-(Ethane-1,2-diyl)bis(2,6-dimethylquinazolin-4(3H)-one)] | 40 ± 2.11% | 89.7 ± 1.76% | 15.7 µM | –
273 to 275 °C | Cc1nc2ccccc2c(=O)n1[C@H]1CC[C@H](n2c(C)nc3ccccc3c2=O)CC1 [Compound 3a, 3,3′-((1R,4R)-Cyclohexane-1,4-diyl)bis(2-methylquinazolin-4(3H)-one)] | 60.2 ± 1.56% | 97.2 ± 0.41% | 8.15 µM | –
301 to 303 °C | Cc1nc2ccc(F)cc2c(=O)n1-c1ccc(S(=O)(=O)c2ccc(-n3c(C)nc4ccc(F)cc4c3=O)cc2)cc1 [Compound 7d, 3,3′-(Sulfonylbis(4,1-phenylene))bis(6-fluoro-2-methylquinazolin-4(3H)-one)] | 96.46 ± 0.65% | 96.68 ± 0.17% | 3.45 µM | –
219 to 221 °C | Cc1nc2ccc(F)cc2c(=O)n1CCn1c(C)nc2ccc(F)cc2c1=O [Compound 5d, 3,3′-(Ethane-1,2-diyl)bis(6-fluoro-2-methylquinazolin-4(3H)-one)] | 54.49 ± 0.27% | 90 ± 43% | 7.95 µM | –
262 to 264 °C | Cc1nc2ccc(F)cc2c(=O)n1[C@H]1CC[C@H](n2c(C)nc3ccc(F)cc3c2=O)CC1 [Compound 3d, 3,3'-((1R,4R)-Cyclohexane-1,4-diyl)bis(6-fluoro-2-methylquinazolin-4(3H)-one)] | 67.49 ± 0.27% | 90 ± 43% | 8.11 µM | –
311 to 313 °C | Cc1nc2ccc(Cl)cc2c(=O)n1[C@H]1CC[C@H](n2c(C)nc3ccc(Cl)cc3c2=O)CC1 [Compound 3c, 3,3′-((1R,4R)-Cyclohexane-1,4-diyl)bis(6-chloro-2-methylquinazolin-4(3H)-one)] | 61.1 ± 1.82% | 96.98 ± 0.4% | 8.14 µM | –
121 to 123 °C | Cc1nc2ccccc2c(=O)n1-c1cccc(N)c1 | – | – | – | –
327 to 330 °C | Cc1nc2ccc(Cl)cc2c(=O)n1Cc1ccc(Cn2c(C)nc3ccc(Cl)cc3c2=O)cc1 [Compound 4c, 3,3′-(1,4-Phenylenebis(methylene))bis(6-chloro-2-methylquinazolin-4(3H)-one)] | 79.5 ± 2.61% | 81.8 ± 0.87% | 6.07 µM | –
190 to 192 °C | Cc1nc2ccccc2c(=O)n1CCn1c(C)nc2ccccc2c1=O [Compound 5a, 3,3′-(Ethane-1,2-diyl)bis(2-methylquinazolin-4(3H)-one)] | 32.4 ± 2.91% | 88.7 ± 1.83% | 12.3 µM | –
310 to 313 °C | Cc1ccc2nc(C)n(-c3ccc(S(=O)(=O)c4ccc(-n5c(C)nc6ccc(C)cc6c5=O)cc4)cc3)c(=O)c2c1 [Compound 7b, 3,3′-(Sulfonylbis(4,1-phenylene))bis(2,6-dimethylquinazolin-4(3H)-one)] | 53.1 ± 2.2% | 86.8 ± 1.19% | 5.77 µM | –
263 to 265 °C | Cc1ccc2nc(C)n(-c3ccc(-n4c(C)nc5ccc(C)cc5c4=O)cc3)c(=O)c2c1 [Compound 6b, 3,3′-(1,4-Phenylene)bis(2,6-dimethylquinazolin-4(3H)-one)] | 59.2 ± 1.53% | 95.12 ± 0.22% | 8.13 µM | –
236 to 238 °C | Cc1nc2ccccc2c(=O)n1-c1cccc(-n2c(C)nc3ccccc3c2=O)c1 [Compound 11, 3,3′-(1,3-Phenylene)bis(2-methylquinazolin-4(3H)-one)] | 79.8 ± 1.05% | 83.2 ± 1.02% | 5.94 µM | –
280 to 281 °C | Cc1ccc2nc(C)n([C@H]3CC[C@H](n4c(C)nc5ccc(C)cc5c4=O)CC3)c(=O)c2c1 [Compound 3b, 3,3′-((1R,4R)-Cyclohexane-1,4-diyl)bis(2,6-dimethylquinazolin-4(3H)-one)] | 39.3 ± 2.76% | 90.12 ± 0.25% | 15.7 µM | –
244 to 246 °C | Cc1nc2ccc(Cl)cc2c(=O)n1CCn1c(C)nc2ccc(Cl)cc2c1=O [Compound 5c, 3,3′-(Ethane-1,2-diyl)bis(6-chloro-2-methylquinazolin-4(3H)-one)] | 61.9 ± 2.34% | 82.1 ± 1.93% | 7.98 µM | –
109 to 111 °C | Cc1nc2ccccc2c(=O)n1-c1ccccc1N | – | – | – | –
– | CNC(=O)c1cc(Oc2ccc(NC(=O)Nc3ccc(Cl)c(C(F)(F)F)c3)cc2)ccn1 [Sorafenib, sorafenib, reference compound] | 89.8 ± 1.14% | 91.2 ± 1.44% | 5.2 µM | –
294 to 297 °C | Cc1nc2ccccc2c(=O)n1-c1ccc(S(=O)(=O)c2ccc(-n3c(C)nc4ccccc4c3=O)cc2)cc1 [Compound 7a, 3,3′-(Sulfonylbis(4,1-phenylene))bis(2-methylquinazolin-4(3H)-one)] | 82.7 ± 1.63% | 82.1 ± 0.5% | 4.58 µM | –
178 to 180 °C | Cc1nc2ccccc2c(=O)n1-c1ccc(-n2c(C)nc3ccccc3c2=O)cc1 [Compound 6a, 3,3′-(1,4-Phenylene)bis(2-methylquinazolin-4(3H)-one)] | 54.49 ± 0.27% | 90 ± 43% | 8.41 µM | –
277 to 279 °C | Cc1nc2ccccc2c(=O)n1Cc1ccc(Cn2c(C)nc3ccccc3c2=O)cc1 [Compound 4a, 3,3′-(1,4-Phenylenebis(methylene))bis(2-methylquinazolin-4(3H)-one)] | 60.4 ± 3.31% | 62.9 ± 1.45% | 6.11 µM | –
187 to 190 °C | Cc1nc2ccccc2c(=O)n1-c1ccccc1-n1c(C)nc2ccccc2c1=O [Compound 9, 3,3′-(1,2-Phenylene)bis(2-methylquinazolin-4(3H)-one)] | – | – | – | –
285 to 287 °C | Cc1ccc2nc(C)n(Cc3ccc(Cn4c(C)nc5ccc(C)cc5c4=O)cc3)c(=O)c2c1 [Compound 4b, 3,3′-(1,4-Phenylenebis(methylene))bis(2,6-dimethylquinazolin-4(3H)-one)] | 76 ± 2.21% | 78.7 ± 1.76% | 6.79 µM | –
217 to 219 °C | Cc1nc2ccc(F)cc2c(=O)n1Cc1ccc(Cn2c(C)nc3ccc(F)cc3c2=O)cc1 [Compound 4d, 3,3′-(1,4-Phenylenebis(methylene))bis(6-fluoro-2-methylquinazolin-4(3H)-one)] | 94.29 ± 0.39% | 96.09 ± 0.244% | 5.55 µM | –

Compound | melting point | inhibition [1, 2] | inhibition [1, 3] | IC50 [1] | potency against A549 relative to sorafenib ([1]; from IC50 values)
Cc1nc2ccc([N+](=O)[O-])cc2c(=O)n1-c1ccc(-n2c(C)nc3ccc([N+](=O)[O-])cc3c2=O)cc1 [Compound 6e, 3,3′-(1,4-Phenylene)bis(2-methyl-6-nitroquinazolin-4(3H)-one)] | 307 to 310 °C | 95.4 ± 0.24% | 97.6 ± 0.21% | 3.43 µM | –
Cc1nc2ccc([N+](=O)[O-])cc2c(=O)n1[C@H]1CC[C@H](n2c(C)nc3ccc([N+](=O)[O-])cc3c2=O)CC1 [Compound 3e, 3,3′-((1R,4R)-Cyclohexane-1,4-diyl)bis(2-methyl-6-nitroquinazolin-4(3H)-one)] | 301 to 304 °C | 77.1 ± 1.78% | 82.8 ± 1.64% | 5.34 µM | –
Cc1nc2ccc([N+](=O)[O-])cc2c(=O)n1-c1ccc(S(=O)(=O)c2ccc(-n3c(C)nc4ccc([N+](=O)[O-])cc4c3=O)cc2)cc1 [Compound 7e, 3,3′-(Sulfonylbis(4,1-phenylene))bis(2-methyl-6-nitroquinazolin-4(3H)-one)] | 316 to 319 °C | 95.99 ± 0.14% | 96.76 ± 0.87% | 2.75 µM | approximately twice as potent as sorafenib
Cc1nc2ccc([N+](=O)[O-])cc2c(=O)n1CCn1c(C)nc2ccc([N+](=O)[O-])cc2c1=O [Compound 5e, 3,3′-(Ethane-1,2-diyl)bis(2-methyl-6-nitroquinazolin-4(3H)-one)] | 278 to 279 °C | 91.54 ± 0.56% | 97.83 ± 0.24% | 5.05 µM | –
Cc1nc2ccc([N+](=O)[O-])cc2c(=O)n1Cc1ccc(Cn2c(C)nc3ccc([N+](=O)[O-])cc3c2=O)cc1 [Compound 4e, 3,3′-(1,4-Phenylenebis(methylene))bis(2-methyl-6-nitroquinazolin-4(3H)-one)] | 350 to 353 °C | 80.2 ± 2.1% | 87 ± 1.45% | 2.98 µM | –

— publication PMC6458391, “Deep eutectic solvent for an expeditious sono-synthesis of novel series of bis-quinazolin-4-one derivatives as potential anti-cancer agents” (Royal Society Open Science, 2019)
